Assay results from patent publication US20140088187A1, “ANDROGEN RECEPTOR INHIBITORS AND METHODS OF USE THEREOF” (BETH ISRAEL DEACONESS MEDICAL CENTER, priority 2010, published 2014).
Where a chain is given by its changes, count along the chain named.

Assays:
AR WT = molecular target: T1, AR WT (Homo sapiens, UniProt P10275); test: Mifepristone-stimulated VP16-NCoRc recruitment reporter assay in COS7 cells, AR WT; format: cell-based
T1 construct: The AR WT construct expresses full-length human AR under cmv promoter control; expressed in transfected cells; host or cells: COS7
T1 sequence (P10275 1-920): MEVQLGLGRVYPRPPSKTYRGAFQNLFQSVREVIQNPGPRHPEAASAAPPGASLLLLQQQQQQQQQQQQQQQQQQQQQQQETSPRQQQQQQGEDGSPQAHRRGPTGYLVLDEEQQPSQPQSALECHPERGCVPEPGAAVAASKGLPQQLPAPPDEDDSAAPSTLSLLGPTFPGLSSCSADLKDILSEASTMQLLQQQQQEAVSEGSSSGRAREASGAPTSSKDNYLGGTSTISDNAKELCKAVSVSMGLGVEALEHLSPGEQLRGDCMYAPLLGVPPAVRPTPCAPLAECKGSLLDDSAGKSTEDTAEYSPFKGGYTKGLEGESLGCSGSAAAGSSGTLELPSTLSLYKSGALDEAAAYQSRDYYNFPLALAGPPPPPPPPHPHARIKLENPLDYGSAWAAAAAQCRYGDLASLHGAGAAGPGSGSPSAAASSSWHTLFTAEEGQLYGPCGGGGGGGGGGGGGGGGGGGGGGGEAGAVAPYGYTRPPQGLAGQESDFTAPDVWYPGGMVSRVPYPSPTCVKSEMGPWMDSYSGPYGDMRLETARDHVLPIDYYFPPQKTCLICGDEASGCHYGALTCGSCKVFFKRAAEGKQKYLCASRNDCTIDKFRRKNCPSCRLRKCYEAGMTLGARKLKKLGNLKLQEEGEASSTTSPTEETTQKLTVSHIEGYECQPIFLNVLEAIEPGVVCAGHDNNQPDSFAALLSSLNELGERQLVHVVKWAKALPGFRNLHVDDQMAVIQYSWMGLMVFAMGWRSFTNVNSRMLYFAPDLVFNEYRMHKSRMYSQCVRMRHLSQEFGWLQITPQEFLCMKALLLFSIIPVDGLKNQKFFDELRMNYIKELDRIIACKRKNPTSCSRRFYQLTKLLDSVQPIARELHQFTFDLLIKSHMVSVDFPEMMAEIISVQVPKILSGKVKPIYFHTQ
Description: The ERα antagonist fulvestrant (Faslodex) represents a novel class of estrogen receptor downregulators that appear to mediate ERα degradation by specifically repositioning helix 12. To assess the role of helix 12 in chemotype A-mediated AR degradation, we first determined if helix 12 is required for A89 binding. As this helix is required for AR agonist activity, we could not directly measure competitive antagonist activity on a truncated AR lacking helix 12.

AR in C4-2 cells = molecular target: T2, AR in C4-2 cells (Homo sapiens, UniProt P10275, T878A)
T2 sequence (P10275 1-920 T878A): T1 sequence (P10275 1-920) with T878A

[1] = steroid depleted medium, data not shown
[2] = steroid depleted medium, dose response

mifepristone-mediated VP16-NCoRc recruitment (AR WT; A89 50 μM with Mif 100 nM): suppressed | VP16-NCoRc recruitment (interaction with AR) (AR WT; Mif 100 nM, A89 50 μM, 24 hours): did not stimulate | basal PSA (AR in C4-2 cells; 24 hours (FIG. 10a)): decrease in basal PSA | total AR protein levels (AR in C4-2 cells; 24 hours (FIG. 10a)): noteworthy decrease | PSA expression (AR in C4-2 cells; [1]): reduced | nuclear AR levels (AR in C4-2 cells; [1]): reduced nuclear AR levels | AR protein (AR in C4-2 cells; [2]): dose dependent decrease | PSA levels (AR in C4-2 cells; [2]): dose dependent decrease
Compound: CCOc1cc(F)c(S(=O)(=O)NCc2ccc3c(c2)OCO3)cc1F [Compound A89, N-(1,3-benzodioxol-5-ylmethyl)-4-ethoxy-2,5-difluorobenzenesulfonamide]
decrease in AR protein in the presence of proteasome inhibitor (AR in C4-2 cells; proteasome inhibitors (MG115 and MG132)): blocked in the presence of a proteasome inhibitor
